Reference: patent publication US11932652B2, “Pyrrolidinyl urea derivatives and application thereof in TrkA-related diseases” (ZHANGZHOU PIEN TZE HUANG PHARMACEUTICAL CO., LTD., priority 2018, dated 2024)

Tested on: plasma protein
Assay: Plasma protein binding rate (PPB) test, human plasma
Type: in vitro ADME
Conditions: 2 μM, dialysis 37° C. 4 hours
Experimental: The protein binding rates of the test compound in the plasma of humans, SD rats and Beagle dogs were determined.
796 μL of blank plasma from humans, SD rats and Beagle dogs (plasma purchased from BioreclamationIVT) were taken, 4 μL of working solution of the test compound (400 μM) or warfarin working solution (400 μM) was added and the final concentration of the test compound or warfarin was 2 μM. The sample was mixed thoroughly. The final concentration of organic phase DMSO was 0.5%; 50 μL of the plasma sample treated with the test compound or warfarin was pipetted into the sample receiving plate, and a corresponding volume of blank plasma or buffer was added immediately so that the final volume in each sample well was 100 μL, the volume ratio of plasma:dialysis buffer was 1:1; 400 μL of stop solution was added to these samples, and these samples were used as T0 samples for recovery and stability determination. To samples were stored at 2° C. to 8° C. for subsequent processing together with other dialyzed samples; 150 μL of the plasma sample treated with the test compound or warfarin was added into the dosing end of each dialysis hole, and 150 μL of blank dialysis buffer was added to the receiving end corresponding to the dialysis hole. Then the dialysis plate was sealed with gas-permeable membrane and placed in a humidified 5% CO2 incubator, and incubated at 37° C. with 100 rpm shaking for 4 hours. After the dialysis, 50 μL of the dialysis buffer sample and the dialysis plasma sample was transferred to a new sample receiving plate. […] All samples were analyzed by LC/MS/MS after protein precipitation, and the plasma protein unbound rate, binding rate and recovery rate was calculated according to the following formula: % unbound rate=100*free compound concentration at the membrane buffer side/total compound concentration at the membrane plasma side, % protein binding rate=100-% unbound rate, % recovery rate=100*(free compound concentration at the membrane buffer side+total compound concentration at the membrane plasma side)/total compound concentration before dialysis.

COCCN1C[C@@H](n2ccc(F)c2)[C@H](NC(=O)Nc2c(C)c(-c3cnc(C4(F)COC4)nc3)nn2-c2ccccc2)C1 [Compound 7]
Plasma protein unbound rate, Human plasma: 13.2%
